Experimental findings from article PMC8872791, “MadR mediates acyl CoA-dependent regulation of mycolic acid desaturation in mycobacteria” (Proceedings of the National Academy of Sciences of the …, 2022) are described below.

The term pKd denotes −log10 of the Kd, conventionally taken in molar units. A higher pKd goes with a low Kd.

pKd: −log10 of the molar value.

What all share (assay type): binding
In test [1] the target is T1, MadR (mycolic acid desaturase regulator, Rv0472c) (Mycobacterium tuberculosis, UniProt P9WMD9). In words: intrinsic tryptophan fluorescence quenching (binds, but does not release promoter DNA).
T1 sequence (P9WMD9 whole entry, looked up): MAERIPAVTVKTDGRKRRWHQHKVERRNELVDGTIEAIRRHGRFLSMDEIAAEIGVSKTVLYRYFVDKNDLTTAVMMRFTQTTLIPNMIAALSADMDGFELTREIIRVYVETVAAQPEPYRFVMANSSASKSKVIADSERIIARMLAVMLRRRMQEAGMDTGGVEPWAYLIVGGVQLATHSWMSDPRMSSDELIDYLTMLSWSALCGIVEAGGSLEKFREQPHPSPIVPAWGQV
For test [2], the target named is T1, MadR (mycolic acid desaturase regulator, Rv0472c). In words: intrinsic tryptophan fluorescence quenching; EMSA shows release from desA1/desA2 promoters. (In general: Mobility shift assays separate free from complexed probe on a gel.)
For test [3] the target is unchanged. In words: intrinsic tryptophan fluorescence quenching.

`CCCCC/C=C\C/C=C\CCCCCCCC(=O)SCCNC(=O)CCNC(=O)[C@H](O)C(C)(C)COP(=O)(O)OP(=O)(O)OC[C@H]1O[C@@H](n2cnc3c(N)ncnc32)[C@H](O)[C@@H]1OP(=O)(O)O` [C18:2-CoA, linoleoyl-CoA] had a pKd in test [1] of 5.01.

`CCCCCCCCCCCCCCCC(=O)SCCNC(=O)CCNC(=O)[C@H](O)C(C)(C)COP(=O)(O)OP(=O)(O)OC[C@H]1O[C@@H](n2cnc3c(N)ncnc32)[C@H](O)[C@@H]1OP(=O)(O)O` [C16:0-CoA, palmitoyl-CoA]: in test [2], the pKd is 4.97.

Consider `CCCCCCCCCCCCCCCCCCCCCCCC(=O)SCCNC(=O)CCNC(=O)[C@H](O)C(C)(C)COP(=O)(O)OP(=O)(O)OC[C@H]1O[C@@H](n2cnc3c(N)ncnc32)[C@H](O)[C@@H]1OP(=O)(O)O` [C24:0-CoA, lignoceroyl-CoA], for which, in test [2], the pKd is 4.74.

`CCCCCCCCCCCCCCCCCC(=O)SCCNC(=O)CCNC(=O)[C@H](O)C(C)(C)COP(=O)(O)OP(=O)(O)OC[C@H]1O[C@@H](n2cnc3c(N)ncnc32)[C@H](O)[C@@H]1OP(=O)(O)O` [C18:0-CoA, stearoyl-CoA] gave a pKd in test [2] of 5.11.

For `CCCCCCCC/C=C\CCCCCCCC(=O)SCCNC(=O)CCNC(=O)[C@H](O)C(C)(C)COP(=O)(O)OP(=O)(O)OC[C@H]1O[C@@H](n2cnc3c(N)ncnc32)[C@H](O)[C@@H]1OP(=O)(O)O` [C18:1-CoA, oleoyl-CoA], the pKd in test [1] is 5.02.

In test [3], `CCCCCCCCCCCCCC(=O)SCCNC(=O)CCNC(=O)[C@H](O)C(C)(C)COP(=O)(O)OP(=O)(O)OC[C@H]1O[C@@H](n2cnc3c(N)ncnc32)[C@H](O)[C@@H]1OP(=O)(O)O` [C14:0-CoA, myristoyl-CoA] gave a pKd of 4.91.
